Molecular target: T1, Nav1.7 (or SCN9A) channel (Homo sapiens, UniProt Q15858)
T1 construct: expressed in transfected cells
Assay: Nav1.7 (hSCN9A) electrophysiology assay, PatchXpress platform
Format: cell-based
Settings: estimated IC50 from single point electrophysiology data, HEK cells stably expressing hSCN9A, held at V1/2 of inactivation, read-out: Nav1.7 EIC50
Outline: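 HEK cells stably expressing hSCN9A were recorded by whole-cell voltage clamp, including on PatchXpress, at 22–24°C with extracellular solution at pH 7.4. A 20 msec step to 0 mV followed an 8 s conditioning prepulse to the empirically determined inactivation V1/2. Inhibition was taken from current amplitude before vs after compound.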

T1 sequence (Q15858 whole entry): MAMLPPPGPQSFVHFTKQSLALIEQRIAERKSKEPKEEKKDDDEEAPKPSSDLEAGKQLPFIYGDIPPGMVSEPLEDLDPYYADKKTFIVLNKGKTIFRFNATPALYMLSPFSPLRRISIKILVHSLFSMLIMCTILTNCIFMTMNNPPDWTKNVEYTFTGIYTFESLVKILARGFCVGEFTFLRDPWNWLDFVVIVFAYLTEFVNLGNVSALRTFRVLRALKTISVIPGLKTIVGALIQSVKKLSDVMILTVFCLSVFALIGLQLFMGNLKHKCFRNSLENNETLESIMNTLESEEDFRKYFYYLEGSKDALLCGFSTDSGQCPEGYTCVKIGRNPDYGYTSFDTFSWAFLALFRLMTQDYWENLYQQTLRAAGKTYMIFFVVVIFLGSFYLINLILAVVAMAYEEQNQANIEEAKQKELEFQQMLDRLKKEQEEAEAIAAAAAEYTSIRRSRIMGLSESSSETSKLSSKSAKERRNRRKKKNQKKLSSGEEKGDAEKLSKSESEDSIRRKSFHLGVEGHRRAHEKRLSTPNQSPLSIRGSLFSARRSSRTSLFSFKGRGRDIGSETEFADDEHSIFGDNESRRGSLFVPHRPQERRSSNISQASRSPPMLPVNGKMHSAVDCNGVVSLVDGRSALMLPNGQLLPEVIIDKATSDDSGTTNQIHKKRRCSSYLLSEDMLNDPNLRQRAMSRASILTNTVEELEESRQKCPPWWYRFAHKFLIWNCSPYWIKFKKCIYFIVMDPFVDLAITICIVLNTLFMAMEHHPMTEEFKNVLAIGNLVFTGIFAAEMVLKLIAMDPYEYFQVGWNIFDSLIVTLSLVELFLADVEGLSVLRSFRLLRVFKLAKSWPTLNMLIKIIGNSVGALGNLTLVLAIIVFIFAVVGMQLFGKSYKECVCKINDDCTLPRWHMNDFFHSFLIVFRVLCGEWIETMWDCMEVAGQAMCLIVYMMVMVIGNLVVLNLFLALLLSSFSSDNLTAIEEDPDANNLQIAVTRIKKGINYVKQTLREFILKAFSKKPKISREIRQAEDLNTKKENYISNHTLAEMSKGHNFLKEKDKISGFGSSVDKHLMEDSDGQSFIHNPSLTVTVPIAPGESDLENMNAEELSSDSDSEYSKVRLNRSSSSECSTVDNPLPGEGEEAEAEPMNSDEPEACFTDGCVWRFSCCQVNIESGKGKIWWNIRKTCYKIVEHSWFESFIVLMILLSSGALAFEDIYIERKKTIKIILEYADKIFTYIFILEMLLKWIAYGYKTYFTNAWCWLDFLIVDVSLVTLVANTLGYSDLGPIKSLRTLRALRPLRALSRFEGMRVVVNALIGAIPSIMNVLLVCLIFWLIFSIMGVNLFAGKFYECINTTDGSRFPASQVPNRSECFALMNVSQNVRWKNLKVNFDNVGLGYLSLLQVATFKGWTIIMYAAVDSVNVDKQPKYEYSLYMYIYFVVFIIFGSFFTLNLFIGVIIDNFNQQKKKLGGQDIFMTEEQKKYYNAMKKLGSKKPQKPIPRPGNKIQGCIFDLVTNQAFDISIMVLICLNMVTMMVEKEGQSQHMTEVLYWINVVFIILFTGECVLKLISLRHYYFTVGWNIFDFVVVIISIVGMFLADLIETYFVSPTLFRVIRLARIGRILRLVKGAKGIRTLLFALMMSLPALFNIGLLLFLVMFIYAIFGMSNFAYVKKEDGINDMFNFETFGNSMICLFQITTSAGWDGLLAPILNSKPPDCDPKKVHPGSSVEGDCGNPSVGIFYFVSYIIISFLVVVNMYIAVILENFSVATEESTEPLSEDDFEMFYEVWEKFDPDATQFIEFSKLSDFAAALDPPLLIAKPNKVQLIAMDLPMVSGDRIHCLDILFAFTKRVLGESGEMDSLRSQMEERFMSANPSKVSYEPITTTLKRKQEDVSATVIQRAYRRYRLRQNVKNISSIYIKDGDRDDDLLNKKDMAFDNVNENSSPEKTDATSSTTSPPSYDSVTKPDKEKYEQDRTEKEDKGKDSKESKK

Row | IC50 | Compound
1 | > 3000 nM | CS(=O)(=O)NC(=O)c1ccc(OCc2ccccc2F)cc1 [Example 180, 4-[(2-fluorobenzyl)oxy]-N-(methylsulfonyl)benzamide]
2 | 570 nM | CS(=O)(=O)NC(=O)c1ccc(OCc2ccc(OC(F)(F)F)cc2)cc1 [Example 181, N-(methylsulfonyl)-4-{[4-(trifluoromethoxy)benzyl]oxy}benzamide]
3 | > 1000 nM | CS(=O)(=O)NC(=O)c1ccc(OCc2c(F)cccc2Cl)cc1 [Example 182, 4-[(2-chloro-6-fluorobenzyl)oxy]-N-(methylsulfonyl)benzamide]
4 | 4300 nM | CS(=O)(=O)NC(=O)c1ccc(OCc2ccccc2C(F)(F)F)cc1 [Example 183, N-(methylsulfonyl)-4-{[2-(trifluoromethyl)benzyl]oxy}benzamide]
5 | 2600 nM | CS(=O)(=O)NC(=O)c1ccc(OCc2c(Cl)cccc2Cl)cc1 [Example 184, 4-[(2,6-dichlorobenzyl)oxy]-N-(methylsulfonyl)benzamide]
6 | > 1000 nM | COc1cc(COc2ccc(C(=O)NS(C)(=O)=O)cc2)ccc1F [Example 185, 4-[(4-fluoro-3-methoxybenzyl)oxy]-N-(methylsulfonyl)benzamide]
7 | 7300 nM | CS(=O)(=O)NC(=O)c1ccc(OCc2ccccc2Cl)cc1 [Example 186, 4-[(2-chlorobenzyl)oxy]-N-(methylsulfonyl)benzamide]
8 | 4200 nM | CS(=O)(=O)NC(=O)c1ccc(OCc2cc(F)cc(F)c2)cc1 [Example 187, 4-[(3,5-difluorobenzyl)oxy]-N-(methylsulfonyl)benzamide]
9 | 2500 nM | COc1ccc(F)c(COc2ccc(C(=O)NS(C)(=O)=O)cc2)c1 [Example 188, 4-[(2-fluoro-5-methoxybenzyl)oxy]-N-(methylsulfonyl)benzamide]
10 | 1500 nM | CS(=O)(=O)NC(=O)c1ccc(OCc2cccc(Cl)c2Cl)cc1 [Example 189, 4-[(2,3-dichlorobenzyl)oxy]-N-(methylsulfonyl)benzamide]
11 | 620 nM | CS(=O)(=O)NC(=O)c1ccc(OCc2ccc(Cl)cc2Cl)cc1 [Example 190, 4-[(2,4-dichlorobenzyl)oxy]-N-(methylsulfonyl)benzamide]
12 | 7600 nM | CS(=O)(=O)NC(=O)c1ccc(OCC2CCCC2)cc1 [Example 191, 4-(cyclopentylmethoxy)-N-(methylsulfonyl)benzamide]
13 | 3100 nM | CS(=O)(=O)NC(=O)c1cc(F)c(OCc2cccc(C(F)(F)F)c2)cc1F [Example 192, 2,5-difluoro-N-(methylsulfonyl)-4-{[3-(trifluoromethyl)benzyl]oxy}benzamide]
14 | 4700 nM | CS(=O)(=O)NC(=O)c1cc(F)c(OCc2ccc(C(F)(F)F)cc2)cc1F [Example 193, 2,5-difluoro-N-(methylsulfonyl)-4-{[4-(trifluoromethyl)benzyl]oxy}benzamide]
15 | 1700 nM | CS(=O)(=O)NC(=O)c1cc(F)c(OCc2cccc3ccccc23)cc1F [Example 194, 2,5-difluoro-N-(methylsulfonyl)-4-(1-naphthylmethoxy)benzamide]
16 | > 3000 nM | CS(=O)(=O)NC(=O)c1cc(F)c(OCc2cccc(F)c2)cc1F [Example 195, 2,5-difluoro-4-[(3-fluorobenzyl)oxy]-N-(methylsulfonyl)benzamide]
17 | > 1000 nM | Cc1ccc(COc2cc(F)c(C(=O)NS(C)(=O)=O)cc2F)cc1 [Example 196, 2,5-difluoro-4-[(4-methylbenzyl)oxy]-N-(methylsulfonyl)benzamide]
18 | > 1000 nM | CS(=O)(=O)NC(=O)c1cc(F)c(OCC2CCC2)cc1F [Example 197, 4-(cyclobutylmethoxy)-2,5-difluoro-N-(methylsulfonyl)benzamide]
19 | > 1000 nM | COc1ccc(COc2cc(F)c(C(=O)NS(C)(=O)=O)cc2F)cc1 [Example 198, 2,5-difluoro-4-[(4-methoxybenzyl)oxy]-N-(methylsulfonyl)benzamide]
20 | 2400 nM | CS(=O)(=O)NC(=O)c1cc(F)c(OCc2ccccc2F)cc1F [Example 199, 2,5-difluoro-4-[(2-fluorobenzyl)oxy]-N-(methylsulfonyl)benzamide]
21 | 5000 nM | COc1cc(C)ccc1COc1cc(F)c(C(=O)NS(C)(=O)=O)cc1F [Example 200, 2,5-difluoro-4-[(2-methoxy-4-methylbenzyl)oxy]-N-(methylsulfonyl)benzamide]
22 | > 1000 nM | COc1cc(COc2cc(F)c(C(=O)NS(C)(=O)=O)cc2F)cc(OC)c1 [Example 201, 4-[(3,5-dimethoxybenzyl)oxy]-2,5-difluoro-N-(methylsulfonyl)benzamide]
23 | 11000 nM | COc1ccc(OC)c(COc2cc(F)c(C(=O)NS(C)(=O)=O)cc2F)c1 [Example 202, 4-[(2,5-dimethoxybenzyl)oxy]-2,5-difluoro-N-(methylsulfonyl)benzamide]
24 | 1700 nM | Cc1ccc(COc2cc(F)c(C(=O)NS(C)(=O)=O)cc2F)cc1C [Example 203, 4-[(3,4-dimethylbenzyl)oxy]-2,5-difluoro-N-(methylsulfonyl)benzamide]

Row | IC50 | Compound
25 | 3600 nM | CS(=O)(=O)NC(=O)c1ccc(OCc2ccc(F)cc2F)cc1 [Example 204, 4-[(2,4-difluorobenzyl)oxy]-N-(methylsulfonyl)benzamide]
26 | > 3000 nM | COc1ccc(F)c(COc2cc(F)c(C(=O)NS(C)(=O)=O)cc2F)c1 [Example 205, 2,5-difluoro-4-[(2-fluoro-5-methoxybenzyl)oxy]-N-(methylsulfonyl)benzamide]
27 | > 1000 nM | COc1cccc(COc2cc(F)c(C(=O)NS(C)(=O)=O)cc2F)c1OC [Example 206, 4-[(2,3-dimethoxybenzyl)oxy]-2,5-difluoro-N-(methylsulfonyl)benzamide]
28 | > 300 nM | CS(=O)(=O)NC(=O)c1cc(F)c(OCc2cccc(Cl)c2)cc1F [Example 207, 4-[(3-chlorobenzyl)oxy]-2,5-difluoro-N-(methylsulfonyl)benzamide]
29 | 2600 nM | CS(=O)(=O)NC(=O)c1ccc(OCc2cc(F)ccc2F)cc1 [Example 208, 4-[(2,5-difluorobenzyl)oxy]-N-(methylsulfonyl)benzamide]
30 | > 1000 nM | COc1ccc(C)cc1COc1ccc(C(=O)NS(C)(=O)=O)cc1 [Example 210, 4-[(2-methoxy-5-methylbenzyl)oxy]-N-(methylsulfonyl)benzamide]
31 | 2600 nM | CS(=O)(=O)NC(=O)c1cc(F)c(OCc2ccc(OC(F)F)cc2)cc1F [Example 211, 4-{[4-(difluoromethoxy)benzyl]oxy}-2,5-difluoro-N-(methylsulfonyl)benzamide]
32 | > 300 nM | CS(=O)(=O)NC(=O)c1cc(F)c(OCc2ccc(OC(F)(F)F)cc2)cc1F [Example 212, 2,5-difluoro-N-(methylsulfonyl)-4-{[4-(trifluoromethoxy)benzyl]oxy}benzamide]
33 | > 300 nM | CS(=O)(=O)NC(=O)c1ccc(OCc2ccc(Cl)cc2F)cc1 [Example 213, 4-[(4-chloro-2-fluorobenzyl)oxy]-N-(methylsulfonyl)benzamide]
34 | 3800 nM | CS(=O)(=O)NC(=O)c1cc(F)c(OCc2cccc(Cl)c2Cl)cc1F [Example 214, 4-[(2,3-dichlorobenzyl)oxy]-2,5-difluoro-N-(methylsulfonyl)benzamide]
35 | > 1000 nM | COc1cc(F)ccc1COc1cc(F)c(C(=O)NS(C)(=O)=O)cc1F [Example 215, 2,5-difluoro-4-[(4-fluoro-2-methoxybenzyl)oxy]-N-(methylsulfonyl)benzamide]
36 | 3800 nM | CS(=O)(=O)NC(=O)c1cc(F)c(OCc2ccc(F)cc2)cc1F [Example 216, 2,5-difluoro-4-[(4-fluorobenzyl)oxy]-N-(methylsulfonyl)benzamide]
37 | > 1000 nM | Cc1cccc(COc2cc(F)c(C(=O)NS(C)(=O)=O)cc2F)c1 [Example 217, 2,5-difluoro-4-[(3-methylbenzyl)oxy]-N-(methylsulfonyl)benzamide]
38 | 3400 nM | CS(=O)(=O)NC(=O)c1cc(F)c(OCc2ccccc2OC(F)F)cc1F [Example 218, 4-{[2-(difluoromethoxy)benzyl]oxy}-2,5-difluoro-N-(methylsulfonyl)benzamide]
39 | > 1000 nM | COc1ccc(C)cc1COc1cc(F)c(C(=O)NS(C)(=O)=O)cc1F [Example 219, 2,5-difluoro-4-[(2-methoxy-5-methylbenzyl)oxy]-N-(methylsulfonyl)benzamide]
40 | 1700 nM | CS(=O)(=O)NC(=O)c1cc(F)c(OCc2ccccc2C(F)(F)F)cc1F [Example 220, 2,5-difluoro-N-(methylsulfonyl)-4-{[2-(trifluoromethyl)benzyl]oxy}benzamide]
41 | 1800 nM | CS(=O)(=O)NC(=O)c1cc(F)c(OCc2ccccc2Cl)cc1F [Example 221, 4-[(2-chlorobenzyl)oxy]-2,5-difluoro-N-(methylsulfonyl)benzamide]
42 | 3600 nM | COc1cc(COc2cc(F)c(C(=O)NS(C)(=O)=O)cc2F)ccc1C [Example 222, 2,5-difluoro-4-[(3-methoxy-4-methylbenzyl)oxy]-N-(methylsulfonyl)benzamide]
43 | > 300 nM | COc1ccc(Cl)cc1COc1ccc(C(=O)NS(C)(=O)=O)cc1 [Example 223, 4-[(5-chloro-2-methoxybenzyl)oxy]-N-(methylsulfonyl)benzamide]
44 | > 300 nM | CS(=O)(=O)NC(=O)c1cc(F)c(OCc2cccc(OC(F)F)c2)cc1F [Example 224, 4-{[3-(difluoromethoxy)benzyl]oxy}-2,5-difluoro-N-(methylsulfonyl)benzamide]
45 | > 300 nM | CS(=O)(=O)NC(=O)c1cc(F)c(OCc2ccc(Cl)cc2)cc1F [Example 225, 4-[(4-chlorobenzyl)oxy]-2,5-difluoro-N-(methylsulfonyl)benzamide]
46 | > 1000 nM | CCOc1ccccc1COc1cc(F)c(C(=O)NS(C)(=O)=O)cc1F [Example 226, 4-[(2-ethoxybenzyl)oxy]-2,5-difluoro-N-(methylsulfonyl)benzamide]
47 | 940 nM | CS(=O)(=O)NC(=O)c1cc(F)c(OCc2ccc3ccccc3c2)cc1F [Example 227, 2,5-difluoro-N-(methylsulfonyl)-4-(2-naphthylmethoxy)benzamide]

— US9096500B2, “Acyl sulfonamide compounds” (Pfizer Limited, priority 2010, dated 2015)
